Data from ChEMBL document CHEMBL3856205, “Synthesis and biological evaluation of novel 4-hydroxytamoxifen analogs as estrogen-related receptor gamma inverse agonists” (Eur J Med Chem, 2016).
pIC50: −log10 of the molar value.

Columns and labels:
[1] = in vitro; conditions: mouse, liver microsomes
Description: Metabolic stability in mouse liver microsomes assessed as compound remaining at 1 uM after 30 mins in presence of NADPH by LC-MS/MS analysis

[2] = Metabolic stability in dog liver microsomes assessed as compound remaining at 1 uM after 30 mins in presence of NADPH by LC-MS/MS analysis; type: ADME, Canis lupus familiaris; conditions: read-out: Stability
[3] = target: CYP3A4 (Homo sapiens, UniProt P08684); assay: Inhibition of CYP3A4 in human liver microsomes assessed as remaining activity by measuring midazolam 1'-hydroxylase activity at 10 uM pre-incubated for 5 mins followed by NADPH regenerating system addition by LC-MS/MS analysis relative to control; type: ADME; conditions: probe midazolam (1'-hydroxylation), read-out: Activity
[4] = Permeability of the compound in PBS at pH 7.4 at 10 uM after 5 hrs by LC-MS/MS analysis; type: ADME; conditions: not told, read-out: permeability
[5] = target: T1, Steroid hormone receptor ERR1 (Homo sapiens, UniProt P11474); assay: Inhibition of fluorescien-conjugated coactivator PGC1a binding to ERRalpha (unknown origin) after 1 hr by TR-FRET assay
T1 sequence (P11474 whole entry): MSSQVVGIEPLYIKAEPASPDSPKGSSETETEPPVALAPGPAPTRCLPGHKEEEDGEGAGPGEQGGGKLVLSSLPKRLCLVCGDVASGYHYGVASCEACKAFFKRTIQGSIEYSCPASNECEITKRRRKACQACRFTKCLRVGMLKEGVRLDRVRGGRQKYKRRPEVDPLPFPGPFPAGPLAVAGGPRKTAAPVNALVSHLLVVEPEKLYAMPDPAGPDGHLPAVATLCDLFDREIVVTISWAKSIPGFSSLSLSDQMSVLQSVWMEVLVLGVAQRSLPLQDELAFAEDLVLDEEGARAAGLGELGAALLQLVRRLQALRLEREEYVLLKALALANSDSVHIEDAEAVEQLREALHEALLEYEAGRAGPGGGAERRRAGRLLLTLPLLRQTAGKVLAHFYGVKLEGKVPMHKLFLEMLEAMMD

[6] = target: CYP2D6 (Homo sapiens, UniProt P10635); assay: Inhibition of CYP2D6 in human liver microsomes assessed as remaining activity by measuring dextromethorphan O-demethylase activity at 10 uM pre-incubated for 5 mins followed by NADPH regenerating system addition by LC-MS/MS analysis relative to control; type: ADME; conditions: probe dextromethorphan (O-demethylation), read-out: Activity
[7] = target: T2, Estrogen receptor (Homo sapiens, UniProt P03372)
T2 sequence (P03372 whole entry): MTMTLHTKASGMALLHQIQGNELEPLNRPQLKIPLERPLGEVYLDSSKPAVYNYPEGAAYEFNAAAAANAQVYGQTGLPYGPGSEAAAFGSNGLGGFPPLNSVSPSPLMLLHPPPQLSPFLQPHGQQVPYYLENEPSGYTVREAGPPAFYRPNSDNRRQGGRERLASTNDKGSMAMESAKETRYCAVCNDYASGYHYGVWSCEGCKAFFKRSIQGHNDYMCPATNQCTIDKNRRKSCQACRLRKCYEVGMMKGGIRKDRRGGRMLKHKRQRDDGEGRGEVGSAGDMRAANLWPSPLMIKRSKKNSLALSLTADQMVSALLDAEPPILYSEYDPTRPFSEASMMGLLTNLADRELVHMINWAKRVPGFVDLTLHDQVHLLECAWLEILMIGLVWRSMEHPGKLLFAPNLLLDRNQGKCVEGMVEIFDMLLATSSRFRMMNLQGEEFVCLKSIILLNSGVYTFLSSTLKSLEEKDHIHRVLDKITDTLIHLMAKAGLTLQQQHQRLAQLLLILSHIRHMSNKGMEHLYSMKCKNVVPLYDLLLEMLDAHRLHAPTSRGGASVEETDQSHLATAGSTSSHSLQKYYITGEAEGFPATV
Description: Inhibition of fluorescien-conjugated coactivator PGC1a binding to ERalpha (unknown origin) after 1 hr by TR-FRET assay

[8] = target: T3, Estrogen-related receptor gamma (Homo sapiens, UniProt P62508)
T3 sequence (P62508 whole entry): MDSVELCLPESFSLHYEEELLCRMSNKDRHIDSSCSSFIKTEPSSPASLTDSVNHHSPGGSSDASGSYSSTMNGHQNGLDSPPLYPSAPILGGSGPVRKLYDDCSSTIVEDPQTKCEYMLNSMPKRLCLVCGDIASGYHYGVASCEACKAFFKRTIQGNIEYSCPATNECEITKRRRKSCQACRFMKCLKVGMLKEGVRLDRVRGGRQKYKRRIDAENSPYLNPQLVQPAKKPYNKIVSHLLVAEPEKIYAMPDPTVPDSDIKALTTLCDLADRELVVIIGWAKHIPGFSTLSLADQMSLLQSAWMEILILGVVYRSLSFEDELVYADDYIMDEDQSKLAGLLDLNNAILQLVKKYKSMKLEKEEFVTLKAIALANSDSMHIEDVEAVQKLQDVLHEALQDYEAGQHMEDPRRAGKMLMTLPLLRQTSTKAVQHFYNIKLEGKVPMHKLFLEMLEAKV
Description: Inhibition of fluorescien-conjugated coactivator PGC1a binding to GST-tagged human ERRgamma LBD after 1 hr by TR-FRET assay

[9] = in vitro; conditions: human, liver microsomes
Description: Metabolic stability in human liver microsomes assessed as compound remaining at 1 uM after 30 mins in presence of NADPH by LC-MS/MS analysis

[10] = target: CYP2C9 (Homo sapiens, UniProt P11712); assay: Inhibition of CYP2C9 in human liver microsomes assessed as remaining activity by measuring tolbutamide 4-hydroxylase activity at 10 uM pre-incubated for 5 mins followed by NADPH regenerating system addition by LC-MS/MS analysis relative to control; type: ADME; conditions: probe tolbutamide (4-hydroxylation), read-out: Activity
[11] = target: T4, Steroid hormone receptor ERR2 (Homo sapiens, UniProt O95718); assay: Inhibition of fluorescien-conjugated coactivator PGC1a binding to ERRbeta (unknown origin) after 1 hr by TR-FRET assay
T4 sequence (O95718 whole entry): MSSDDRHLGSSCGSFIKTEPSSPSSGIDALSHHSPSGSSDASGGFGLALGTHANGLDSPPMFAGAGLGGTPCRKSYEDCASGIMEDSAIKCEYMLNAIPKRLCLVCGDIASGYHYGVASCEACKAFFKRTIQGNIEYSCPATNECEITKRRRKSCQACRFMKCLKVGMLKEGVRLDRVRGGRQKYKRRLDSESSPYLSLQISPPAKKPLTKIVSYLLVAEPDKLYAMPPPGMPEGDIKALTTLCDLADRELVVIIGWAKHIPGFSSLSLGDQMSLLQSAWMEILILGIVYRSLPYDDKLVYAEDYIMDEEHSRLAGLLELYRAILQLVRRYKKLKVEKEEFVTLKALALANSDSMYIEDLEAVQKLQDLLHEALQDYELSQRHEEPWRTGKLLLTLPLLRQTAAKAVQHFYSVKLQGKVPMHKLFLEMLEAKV

[12] = target: CYP2C19 (Homo sapiens, UniProt P33261); assay: Inhibition of CYP2C19 in human liver microsomes assessed as remaining activity by measuring S-mephenytoin 4-hydroxylase activity at 10 uM pre-incubated for 5 mins followed by NADPH regenerating system addition by LC-MS/MS analysis relative to control; type: ADME; conditions: probe S-mephenytoin (4-hydroxylation), read-out: Activity
[13] = in vitro; conditions: rat, liver microsomes
Description: Metabolic stability in rat liver microsomes assessed as compound remaining at 1 uM after 30 mins in presence of NADPH by LC-MS/MS analysis

[14] = target: T5, CYP1A2 (Homo sapiens, UniProt P05177); assay: Inhibition of CYP1A2 in human liver microsomes assessed as remaining activity by measuring phenacetin O-deethylase activity at 10 uM pre-incubated for 5 mins followed by NADPH regenerating system addition by LC-MS/MS analysis relative to control; type: ADME; conditions: probe phenacetin (O-deethylation), read-out: Activity
T5 sequence (P05177 whole entry): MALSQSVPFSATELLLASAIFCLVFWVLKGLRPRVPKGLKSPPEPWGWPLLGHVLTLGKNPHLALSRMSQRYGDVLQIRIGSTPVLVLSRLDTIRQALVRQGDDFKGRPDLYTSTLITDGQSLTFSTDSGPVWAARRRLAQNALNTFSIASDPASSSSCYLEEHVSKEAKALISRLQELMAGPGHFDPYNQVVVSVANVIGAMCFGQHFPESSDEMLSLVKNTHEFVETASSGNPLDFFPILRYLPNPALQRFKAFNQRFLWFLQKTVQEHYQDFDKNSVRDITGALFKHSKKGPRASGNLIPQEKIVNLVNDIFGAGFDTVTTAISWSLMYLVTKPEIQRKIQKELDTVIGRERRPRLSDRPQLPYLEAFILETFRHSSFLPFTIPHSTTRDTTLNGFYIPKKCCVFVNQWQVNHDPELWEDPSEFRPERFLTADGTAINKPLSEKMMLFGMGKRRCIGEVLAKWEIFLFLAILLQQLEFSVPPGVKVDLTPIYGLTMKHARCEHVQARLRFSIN

[15] = target: T3, Estrogen-related receptor gamma; remark: listed apart in the source
Description: Inverse agonist activity at ERRgamma (unknown origin) expressed in human AD293 cells after 24 hrs by beta-galactosidase/luciferase reporter gene assay

Sequence of CYP2C19 (P33261 whole entry): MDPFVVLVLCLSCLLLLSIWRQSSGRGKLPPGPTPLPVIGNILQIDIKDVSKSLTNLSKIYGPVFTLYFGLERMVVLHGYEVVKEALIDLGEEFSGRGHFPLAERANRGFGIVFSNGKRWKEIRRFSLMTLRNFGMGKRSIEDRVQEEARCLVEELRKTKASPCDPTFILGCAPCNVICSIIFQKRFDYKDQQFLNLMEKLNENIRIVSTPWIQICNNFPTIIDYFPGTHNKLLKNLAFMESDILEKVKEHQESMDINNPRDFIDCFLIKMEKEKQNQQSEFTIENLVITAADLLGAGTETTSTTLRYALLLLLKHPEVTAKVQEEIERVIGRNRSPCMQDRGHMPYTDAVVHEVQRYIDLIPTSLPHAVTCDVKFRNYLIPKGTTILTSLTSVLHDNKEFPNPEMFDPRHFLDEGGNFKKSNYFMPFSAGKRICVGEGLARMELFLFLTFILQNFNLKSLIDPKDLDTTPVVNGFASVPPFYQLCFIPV
Sequence of CYP2C9 (P11712 whole entry): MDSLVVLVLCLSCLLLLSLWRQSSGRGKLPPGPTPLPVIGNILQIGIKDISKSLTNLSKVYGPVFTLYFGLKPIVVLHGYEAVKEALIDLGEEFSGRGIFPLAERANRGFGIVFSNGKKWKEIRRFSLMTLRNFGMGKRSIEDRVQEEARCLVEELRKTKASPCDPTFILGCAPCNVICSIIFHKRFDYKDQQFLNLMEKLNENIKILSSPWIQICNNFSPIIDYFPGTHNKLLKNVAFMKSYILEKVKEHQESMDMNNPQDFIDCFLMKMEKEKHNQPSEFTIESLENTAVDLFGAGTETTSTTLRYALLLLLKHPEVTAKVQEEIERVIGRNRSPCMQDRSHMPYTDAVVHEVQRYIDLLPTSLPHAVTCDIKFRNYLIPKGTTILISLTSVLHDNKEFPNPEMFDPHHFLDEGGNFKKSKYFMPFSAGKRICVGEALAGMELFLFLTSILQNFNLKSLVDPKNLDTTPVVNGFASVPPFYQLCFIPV
Sequence of CYP2D6 (P10635 whole entry): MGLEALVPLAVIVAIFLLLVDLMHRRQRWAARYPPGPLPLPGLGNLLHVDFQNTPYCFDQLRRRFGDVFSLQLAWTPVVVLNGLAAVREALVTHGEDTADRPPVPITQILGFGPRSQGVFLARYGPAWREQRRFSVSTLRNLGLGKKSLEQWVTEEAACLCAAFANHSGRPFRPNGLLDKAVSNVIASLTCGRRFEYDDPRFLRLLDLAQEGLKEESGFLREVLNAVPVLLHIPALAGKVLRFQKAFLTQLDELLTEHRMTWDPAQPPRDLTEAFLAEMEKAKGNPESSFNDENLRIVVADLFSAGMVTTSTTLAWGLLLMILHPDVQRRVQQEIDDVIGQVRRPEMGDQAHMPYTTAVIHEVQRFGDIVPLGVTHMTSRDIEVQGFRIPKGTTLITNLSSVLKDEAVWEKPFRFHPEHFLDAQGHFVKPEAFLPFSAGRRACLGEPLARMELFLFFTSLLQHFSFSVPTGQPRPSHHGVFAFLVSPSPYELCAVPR
Sequence of CYP3A4 (P08684 whole entry): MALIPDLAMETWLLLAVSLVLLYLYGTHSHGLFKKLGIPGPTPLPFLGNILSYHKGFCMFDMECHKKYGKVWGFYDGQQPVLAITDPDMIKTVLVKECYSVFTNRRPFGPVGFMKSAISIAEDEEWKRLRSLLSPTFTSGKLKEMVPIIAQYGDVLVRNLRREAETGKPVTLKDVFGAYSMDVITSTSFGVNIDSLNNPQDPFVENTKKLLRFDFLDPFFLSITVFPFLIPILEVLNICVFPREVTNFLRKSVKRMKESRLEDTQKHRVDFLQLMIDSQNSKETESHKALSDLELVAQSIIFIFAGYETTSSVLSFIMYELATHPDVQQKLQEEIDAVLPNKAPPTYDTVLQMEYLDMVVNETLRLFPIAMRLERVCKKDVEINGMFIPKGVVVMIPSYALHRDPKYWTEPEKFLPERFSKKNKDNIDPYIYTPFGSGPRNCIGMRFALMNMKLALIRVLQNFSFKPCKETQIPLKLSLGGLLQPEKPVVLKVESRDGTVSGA

SMILES	remaining at 0.5 h, 1 µM [1] [%]	remaining at 0.5 h, 1 µM [2] [%]	activity at 10 µM [3] [%]	Papp at 5 h, 10 µM [4] [×10⁻⁶ cm/s]	pIC50 [5]	activity at 10 µM [6] [%]	pIC50 [7]	pIC50 [8]	remaining at 0.5 h, 1 µM [9] [%]	activity at 10 µM [10] [%]	pIC50 [11]	activity at 10 µM [12] [%]	remaining at 0.5 h, 1 µM [13] [%]	activity at 10 µM [14] [%]	pIC50 [15]
CNCCOc1ccc(/C(=C(/CCCO)c2ccccc2)c2ccc(O)cc2)cc1.Cl	20	76	85	0.03	< 5.00	89	5.48	6.72	83	44	< 5.00	76	79	91	6.73
CCN(CC)CCOc1ccc(/C(=C(/CCCO)c2ccccc2)c2ccc(O)cc2)cc1.Cl	10	22	93	1.02	< 5.00	98	6.06	6.74	18	90	< 5.00	70	32	82	7.10
Cc1ccc(/C(=C(\CCCO)c2ccccc2)c2ccc(OCCN(C)C)cc2)cc1.Cl	16	13	> 100	9.94	< 5.00	> 100	< 5.00	6.57	59	60	< 5.00	> 100	25	> 100	6.17
